Results reported in article PMC9363195, “Preclinical Pharmacokinetics, Biodistribution, and Acute Toxicity Evaluation of Caerin 1.9 Peptide in Sprague Dawley Rats” (Evidence-based Complementary and Alternative Medicine : eCAM, 2022).
Several values for one entry are separate records, joined by “and”; a condition that tells them apart may be missing. Equal entries are not always repeated. Where two headings read alike, the source gives them in different places. Peptide text beside a SMILES is read from it.

Columns and labels:
Format in all cases: in vivo, Sprague Dawley rats
[1] = Pharmacokinetics of repeated subcutaneous injection of F3 (10.0 mg/kg daily, 14 days); conditions: for accumulation in plasma: after 14 days of repeated s.c. injection at 10.0 mg/kg; for CL/F: read-out: Cl_F_obs (clearance rate) (converted)
Description: The first day of F3 administration was recorded as day 1. At least 0.5 ml blood samples were obtained alternatively from 3M/3F rats at pre- and post-F3 injection time periods (0, 0.5, 1, 2, 4, 6, 8, and 24 hr).
(§1) The concentration of F3 in rat plasma was determined by liquid chromatography-tandem mass spectrometry, using the method established by Kanglong Huacheng Co., Ltd. The analyte was assayed by liquid chromatography coupled with the tandem mass spectrometry (LC-MS/MS) method. The LC-MS/MS system consisted of a Shimadzu HPLC system (Kyoto, Japan) and an LCMS-8060 instrument (serial no. 011105500332 AE). The following were the LC conditions: column, HALO ES-C18 2.7 µ C18 160A (50 × 2.1 mm); gradient elution at 0.5 mL/min with 5% acetonitrile in water containing 0.1% formic acid or 95% acetonitrile in water containing 0.1% formic acid; and injection volume of 10 µL. A multiple reaction monitoring (MRM) method was selected for quantitative analysis. For analyte and internal standard, the optimum transitions were 519.50 > 129.15 (five charges) and 649.15 > 120.10 (four charges), 393.20 > 373.25, and 237.15 > 194.15, respectively. The instrumental parameters were set as follows: nebulizing gas flow was 3 L/min; heating gas flow was 10 L/min; interface temperature was 300°C; DL temperature was 250°C; and heat block temperature was 400°C.
PK parameters were estimated by a noncompartmental model with the calculation model of “Linear Trapezoidal Linear Interpolation” using WinNonlin (Phoenix TM, version 8.1). If the plasma F3 was detected, the following pharmacokinetic parameters were measured and calculated: Cmax (maximum blood concentration), Tmax (peak time), T1/2 (elimination half-life), AUC (area under plasma concentration-time curve), Vz_F_obs (apparent distribution volume), Cl_F_obs (clearance rate), and MRTInf_obs (mean residence time).

[2] = Tissue distribution of single subcutaneous injection of F3 (1.0 mg/kg); conditions: LC-MS/MS; for F3 in tissue samples (heart, brain, liver, kidney, lung, spleen, stomach, small intestine, testis, ovaries, subcutaneous fat, skeletal muscle): single s.c. 1.0 mg/kg, 1, 2, 4, 8, 24, 48 h, LOQ in tissues 40–80 ng/g; for level at 4 h / level at 1 h / level at 2 h: Sprague-Dawley, rat, plasma, sc, n=3, read-out: F3 concentration in plasma; for level at 4 h: 4th hr; for level at 1 h: 1 hour after administration; for level at 2 h: mean
Description: as §1
Thirty-six SD rats (18 females, 18 males) were randomly selected and given a single subcutaneous injection of F3 at 1.0 mg/kg. Tissue samples were collected at 1, 2, 4, 8, 24, and 48 hours after F3 administration. At each time point, six rats (3 of each sex) were sacrificed. At least 0.5 ml of whole blood was collected before euthanasia, and 0.5–1.0 g of tissue was collected after euthanasia. The heart, brain, liver, kidney, lung, spleen, stomach, small intestine, testis, ovary, subcutaneous fat, and skeletal muscle were among the tissue types studied.
The desired serial concentrations of working solutions were achieved by diluting stock solution (1 mg/mL in DMSO) of analyte with 50% acetonitrile in water. 5 μL of working solutions (10 to 10000 ng/mL) were added to 50 μL of the blank rat plasma and tissues to achieve calibration standards or quality control (QC) samples of 1 to 1000 ng/mL in a total volume of 55 μL.
The resulting standard, QC, or study samples were added to 200 μL of methanol containing IS (50 ng/mL dexamethasone, 2 ng/mL verapamil and 2 ng/mL carbamazepine as internal standard (IS) for protein precipitation. All samples were then vortexed for 30 seconds. After centrifugation at 4°C and 4000 rpm (ca. 3740 x g) for 15 minutes, 100 µL of the supernatant was diluted with 200 µL of water for injection on LC-MS/MS.

SD rats [3] = assay: Histopathologic examination (H&E) of vital organs; conditions: s.c. 10.0 mg/kg daily x14 d
Source text: After blood was collected at the predetermined time points, all rats were euthanized and subjected to a comprehensive general autopsy, which included a thorough examination of the external surface of the body, all foramen, cranial cavity, external surface of the brain, chest, abdomen, pelvic cavity, viscera, cervix, and genitalia. The adrenal gland, brain (brain, cerebellum, and brain stem), epididymis, heart, kidney, liver, ovary, spleen, testis, thymus, thyroid gland, and uterus were carefully collected, weighed, and documented before being kept in 10% neutral formalin buffer (10% NBF).
The H&E staining was followed as reported elsewhere. Following formalin fixation, the important tissues were dehydrated, stained with hematoxylin (about 15 minutes) and eosin (1–3 minutes), dehydrated again with gradient alcohol, clarified in xylene, and then examined and recorded under the microscope.

SD rats [4] = assay: Food intake and body weight gain in acute toxicity study; conditions: single or repeated s.c. injection
Description: For 14 days, the body weight was measured before F3 administration on the first day of the experiment and once a week thereafter, with additional measurements on the day before and on the day of the planned autopsy. Food intake was recorded once a week. The rats were anesthetized by inhalation of 70% CO2/30% O2 before dissection, and blood samples were taken for hematology and biochemical analysis. The collected tissue was weighed and preserved for pathological examination.

[5] = female SD rats, s.c. 10.0 mg/kg daily x14 d, 14th dose, plasma, LC-MS/MS
[6] = female, Sprague-Dawley, rat, plasma, sc, 10 mg/kg, female SD rats, s.c. 10.0 mg/kg daily x14 d, 1st dose, LC-MS/MS
[7] = female, Sprague-Dawley, rat, plasma, sc, 10 mg/kg, female SD rats, s.c. 10.0 mg/kg daily x14 d, 14th dose, LC-MS/MS
[8] = male, Sprague-Dawley, rat, plasma, sc, 10 mg/kg, male SD rats, s.c. 10.0 mg/kg daily x14 d, 1st dose, LC-MS/MS
[9] = male, Sprague-Dawley, rat, plasma, sc, 10 mg/kg, male SD rats, s.c. 10.0 mg/kg daily x14 d, 14th dose, LC-MS/MS
[10] = female SD rats, single s.c. 1.0 mg/kg
[11] = male SD rats, single s.c. 1.0 mg/kg

For CC[C@H](C)[C@H](NC(=O)[C@H](CO)NC(=O)CNC(=O)[C@H](CC(C)C)NC(=O)[C@@H](NC(=O)CNC(=O)[C@H](Cc1ccccc1)NC(=O)[C@H](CC(C)C)NC(=O)CN)C(C)C)C(=O)N[C@@H](C)C(=O)N[C@@H](CCCCN)C(=O)N[C@@H](Cc1c[nH]cn1)C(=O)N[C@H](C(=O)N[C@@H](CC(C)C)C(=O)N1CCC[C@H]1C(=O)N[C@@H](Cc1c[nH]cn1)C(=O)N[C@H](C(=O)N[C@H](C(=O)N1CCC[C@H]1C(=O)N[C@H](C(=O)N[C@H](C(=O)N[C@@H](C)C(=O)N[C@@H](CCC(=O)O)C(=O)N[C@@H](CCCCN)C(=O)N[C@@H](CC(C)C)C(N)=O)[C@@H](C)CC)C(C)C)C(C)C)C(C)C)C(C)C [F3, Caerin 1.9] (H-GLFGVLGSIAKHVLPHVVPVIAEKL-NH2), the accumulation in plasma ([1]; SD rats, 10 mg/kg) was “no F3 accumulation”, the accumulation in plasma ([1]; SD rats, listed as Caerin 1.9, 10 mg/kg) was “no accumulation” and the Tmax ([1]; SD rats, s.c., over single 1.0 mg/kg and repeated 10.0 mg/kg groups) was “between half an hour and one hour”. The AUC_%Extrap_obs ([1]; female SD rats, s.c. 10.0 mg/kg daily x14 d, 1st dose, plasma, LC-MS/MS) was 1.48%, the T max ([1]; female SD rats, s.c. 10.0 mg/kg daily x14 d, 1st dose, plasma, LC-MS/MS, 10 mg/kg) was 1 h and 1.00 h and the AUC_%Extrap_obs [1, 5] was 0.658%. The T max [1, 5] was 1.00 h, the AUC(0-inf) ([1]; female, Sprague Dawley, rat, plasma, sc, 10 mg/kg, female SD rats, s.c. 10.0 mg/kg daily x14 d, 14th dose, LC-MS/MS) was 1.11 µg·h/mL and the AUC(0-inf) [1, 6] was 0.751 µg·h/mL. The AUC(0-t) [1, 6] was 0.74 µg·h/mL, the Cmax [1, 6] was 0.256 µg/mL and the half-life [1, 6] was 1.33 h. For the same compound, the CL/F ([1]; female, Sprague-Dawley, rat, plasma, sc, 10 mg/kg, female SD rats, s.c. 10.0 mg/kg daily x14 d, 1st dose, plasma, LC-MS/MS) was 13.3 L/h/kg, the MRT ([1]; female, Sprague-Dawley, rat, plasma, sc, 10 mg/kg, female SD rats, s.c. 10.0 mg/kg daily x14 d, 1st dose, plasma, LC-MS/MS, read-out: MRTInf_obs (mean residence time)) was 2.96 h and the AUC(0-t) [1, 7] was 1.1 µg·h/mL. For the same compound, the Cmax [1, 7] was 0.496 µg/mL, the half-life [1, 7] was 1.03 h and the CL/F ([1]; female, Sprague-Dawley, rat, plasma, sc, 10 mg/kg, female SD rats, s.c. 10.0 mg/kg daily x14 d, 14th dose, plasma, LC-MS/MS) was 9.01 L/h/kg. The MRT at 14 days ([1]; female, Sprague-Dawley, rat, plasma, sc, 10 mg/kg, female SD rats, s.c. 10.0 mg/kg daily x14 d, 14th dose, plasma, LC-MS/MS, read-out: MRTInf_obs (mean residence time)) was 1.91 h, the AUC_%Extrap_obs ([1]; male SD rats, s.c. 10.0 mg/kg daily x14 d, 1st dose, plasma, LC-MS/MS) was 0.807% and the T max ([1]; male SD rats, s.c. 10.0 mg/kg daily x14 d, 1st dose, plasma, LC-MS/MS, 10 mg/kg) was 1 h. It also gave an AUC_%Extrap_obs ([1]; male SD rats, s.c. 10.0 mg/kg daily x14 d, 14th dose, plasma, LC-MS/MS) of 0.365%, an AUC(0-inf) [1, 8] of 1.91 µg·h/mL and an AUC(0-t) [1, 8] of 1.89 µg·h/mL. The Cmax [1, 8] was 0.591 µg/mL, the half-life [1, 8] was 4.58 h and the CL/F ([1]; male, Sprague-Dawley, rat, plasma, sc, 10 mg/kg, male SD rats, s.c. 10.0 mg/kg daily x14 d, 1st dose, plasma, LC-MS/MS) was 5.25 L/h/kg. It also gave a Tmax ([1]; male, Sprague-Dawley, rat, plasma, sc, 10 mg/kg, male SD rats, s.c. 10.0 mg/kg daily x14 d, 1st dose, plasma, LC-MS/MS, read-out: T max) of 1 h, an AUC(0-inf) [1, 9] of 1.27 µg·h/mL and an AUC(0-t) [1, 9] of 1.27 µg·h/mL. For the same compound, the Cmax [1, 9] was 0.527 µg/mL, the half-life [1, 9] was 0.894 h and the CL/F ([1]; male, Sprague-Dawley, rat, plasma, sc, 10 mg/kg, male SD rats, s.c. 10.0 mg/kg daily x14 d, 14th dose, plasma, LC-MS/MS) was 7.85 L/h/kg. For the same compound, the MRT at 14 days ([1]; male, Sprague-Dawley, rat, plasma, sc, 10 mg/kg, male SD rats, s.c. 10.0 mg/kg daily x14 d, 14th dose, plasma, LC-MS/MS, read-out: MRTInf_obs (mean residence time)) was 2.06 h, the Tmax ([1]; male, Sprague-Dawley, rat, plasma, sc, 10 mg/kg, male SD rats, s.c. 10.0 mg/kg daily x14 d, 14th dose, plasma, LC-MS/MS, read-out: T max) was 0.5 h and the “F3 in tissue samples (heart, brain, liver, kidney, lung, spleen, stomach, small intestine, testis, ovaries, subcutaneous fat, skeletal muscle)” value ([2]; SD rats, 1 mg/kg) was “No detectable F3”. The “F3 in tissue samples (heart, brain, liver, kidney, lung, spleen, stomach, small intestine, testis, ovaries, subcutaneous fat, skeletal muscle)” value ([2]; SD rats, listed as Caerin 1.9, 1 mg/kg) was under 40 ng/g, the “F3 in plasma samples collected at other time points” value ([2]; SD rats, single s.c. 1.0 mg/kg, time points other than 1, 2, 4 h (8, 24, 48 h)) was “No detectable F3” and the level at 4 h [2, 10] was 0.0194 ± 0.00596 µg/mL. The level at 1 h [2, 10] was 0.174 ± 0.043 µg/mL, the level at 2 h [2, 10] was 0.0497 ± 0.00171 µg/mL and the level at 4 h [2, 11] was 0.02 ± 0.00973 µg/mL. For the same compound, the level at 1 h [2, 11] was 0.165 ± 0.0465 µg/mL, the level at 2 h [2, 11] was 0.104 ± 0.0255 µg/mL and the “histopathologic examination of essential organs” value (SD rats [3]) was “no apparent abnormalities”. The “effect on food intake, body weight, and weight change” value (SD rats [4]) was “no effect”.
